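Test compounds were applied to cells in 96-well plates for 48 hours at 5 doses. Abbreviation: GI50, concentration required for 50% inhibition of growth.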 The source made the active and inactive calls. No stated cut-off is given here; in the data, active = GI50 up to about 1.1 µM and inactive = higher.
Experiments:
Assay in all cases: inhibition of tumour cell growth, NCI panel, 48 h
A549 = tested on: A549
CCRF-CEM = tested on: CCRF-CEM
COLO 205 = tested on: COLO 205
EKVX = tested on: EKVX
HCC 2998 = tested on: HCC 2998
HCT-15 = tested on: HCT-15
HL-60 = tested on: HL-60
HT-29 = tested on: HT-29
K562 = tested on: K562
LOX IMVI = tested on: LOX IMVI
MOLT-4 = tested on: MOLT-4
NCI-H23 = tested on: NCI-H23
OVCAR-4 = tested on: OVCAR-4
RXF 393 = tested on: RXF 393
SF-539 = tested on: SF-539
SN12C = tested on: SN12C
UO-31 = tested on: UO-31
SF-295 = tested on: SF-295
SNB-75 = tested on: SNB-75
HOP-92 = tested on: HOP-92

| Compound | GI50 (A549) | GI50 (CCRF-CEM) | GI50 (COLO 205) | GI50 (EKVX) | GI50 (HCC 2998) | GI50 (HCT-15) [µM] | GI50 (HL-60) | GI50 (HT-29) | GI50 (K562) | GI50 (LOX IMVI) | GI50 (MOLT-4) | GI50 (NCI-H23) | GI50 (OVCAR-4) | GI50 (RXF 393) | GI50 (SF-539) | GI50 (SN12C) | GI50 (UO-31) | GI50 (SF-295) | GI50 (SNB-75) | GI50 (HOP-92) |
| --- | --- | --- | --- | --- | --- | --- | --- | --- | --- | --- | --- | --- | --- | --- | --- | --- | --- | --- | --- | --- |
| NC(=O)C1(c2ccccc2)Nc2ccccc2S1 (stereo unspecified) | > 100 µM (inactive) | > 100 µM (inactive) | > 100 µM (inactive) | > 100 µM (inactive) | > 100 µM (inactive) | > 100 | > 100 µM (inactive) | > 100 µM (inactive) | > 100 µM (inactive) | > 100 µM (inactive) | > 100 µM (inactive) | > 100 µM (inactive) | > 10 µM (inactive) | > 100 µM (inactive) | > 100 µM (inactive) | > 100 µM (inactive) | > 100 µM (inactive) |  |  |  |
| Nc1nn(CC(O)CO)c(=O)s1 (stereo unspecified) | > 100 µM (inactive) | > 100 µM (inactive) | > 100 µM (inactive) | > 100 µM (inactive) | > 100 µM (inactive) | > 100 | > 100 µM (inactive) | > 100 µM (inactive) | > 100 µM (inactive) | > 100 µM (inactive) | > 100 µM (inactive) | > 100 µM (inactive) | > 100 µM (inactive) | > 100 µM (inactive) | > 100 µM (inactive) | > 100 µM (inactive) | > 100 µM (inactive) | > 100 µM (inactive) | 64.6 µM (inactive) |  |
| CCSc1nc(N)c2c(-c3ccc(OC)c(OC)c3)c3c(nc2n1)CCCC3 | > 100 µM (inactive) | > 100 µM (inactive) | > 100 µM (inactive) | > 100 µM (inactive) |  | > 100 | > 100 µM (inactive) | > 100 µM (inactive) | > 100 µM (inactive) | > 100 µM (inactive) | > 100 µM (inactive) | > 100 µM (inactive) | > 100 µM (inactive) | > 100 µM (inactive) | > 100 µM (inactive) | > 100 µM (inactive) | > 100 µM (inactive) | > 100 µM (inactive) | 58.2 µM (inactive) |  |
| COC(=O)C1=C(O)C(C(=O)OC)[C@]2(O)[C@@H](C(=O)OC)[C@H]1C[C@@H](c1ccccc1)[C@@H]2C(=O)OC (stereo partly specified) |  | 5.42 µM (inactive) |  | 17.5 µM (inactive) | 14.2 µM (inactive) | 13.1 | 19.6 µM (inactive) | 16.3 µM (inactive) | 5.61 µM (inactive) | 15.4 µM (inactive) | 11.6 µM (inactive) | 15.2 µM (inactive) |  | 5.08 µM (inactive) | 12.6 µM (inactive) | 15.7 µM (inactive) | 12.2 µM (inactive) |  | 16.9 µM (inactive) |  |
| O=Cc1cn(CCCCCCCCn2cc(C=O)c3ccccc32)c2ccccc12 | 6.59 µM (inactive) | > 10 µM (inactive) | > 10 µM (inactive) | > 10 µM (inactive) | > 10 µM (inactive) | > 10 | 5.46 µM (inactive) | > 10 µM (inactive) | 3.27 µM (inactive) | 7.57 µM (inactive) | 6.37 µM (inactive) | 2.19 µM (inactive) | > 10 µM (inactive) | > 10 µM (inactive) | > 10 µM (inactive) | > 10 µM (inactive) | > 10 µM (inactive) | 6.41 µM (inactive) | 5.6 µM (inactive) |  |
| COc1ccc(C2C(C(=O)O)=C(COC(C)=O)Oc3cc4c(cc32)OCO4)cc1 (stereo unspecified) | > 100 µM (inactive) | > 100 µM (inactive) | > 100 µM (inactive) | > 100 µM (inactive) |  | > 100 | > 100 µM (inactive) | > 100 µM (inactive) | > 100 µM (inactive) | > 100 µM (inactive) | > 100 µM (inactive) | > 100 µM (inactive) | > 100 µM (inactive) | > 100 µM (inactive) |  | > 100 µM (inactive) | > 100 µM (inactive) | > 100 µM (inactive) | > 100 µM (inactive) | > 100 µM (inactive) |

Source: ChEMBL document CHEMBL1201862, “PubChem BioAssay data set” (2004)
